Common to all, as to assay: KINOMEscan competition binding
The target of one assay is FAK (Homo sapiens, UniProt Q05397). Particulars: read-out: %Inh FAK.
A further assay concerns the target T1, FLT3 (Homo sapiens, UniProt P36888).
T1 sequence (P36888 27-993): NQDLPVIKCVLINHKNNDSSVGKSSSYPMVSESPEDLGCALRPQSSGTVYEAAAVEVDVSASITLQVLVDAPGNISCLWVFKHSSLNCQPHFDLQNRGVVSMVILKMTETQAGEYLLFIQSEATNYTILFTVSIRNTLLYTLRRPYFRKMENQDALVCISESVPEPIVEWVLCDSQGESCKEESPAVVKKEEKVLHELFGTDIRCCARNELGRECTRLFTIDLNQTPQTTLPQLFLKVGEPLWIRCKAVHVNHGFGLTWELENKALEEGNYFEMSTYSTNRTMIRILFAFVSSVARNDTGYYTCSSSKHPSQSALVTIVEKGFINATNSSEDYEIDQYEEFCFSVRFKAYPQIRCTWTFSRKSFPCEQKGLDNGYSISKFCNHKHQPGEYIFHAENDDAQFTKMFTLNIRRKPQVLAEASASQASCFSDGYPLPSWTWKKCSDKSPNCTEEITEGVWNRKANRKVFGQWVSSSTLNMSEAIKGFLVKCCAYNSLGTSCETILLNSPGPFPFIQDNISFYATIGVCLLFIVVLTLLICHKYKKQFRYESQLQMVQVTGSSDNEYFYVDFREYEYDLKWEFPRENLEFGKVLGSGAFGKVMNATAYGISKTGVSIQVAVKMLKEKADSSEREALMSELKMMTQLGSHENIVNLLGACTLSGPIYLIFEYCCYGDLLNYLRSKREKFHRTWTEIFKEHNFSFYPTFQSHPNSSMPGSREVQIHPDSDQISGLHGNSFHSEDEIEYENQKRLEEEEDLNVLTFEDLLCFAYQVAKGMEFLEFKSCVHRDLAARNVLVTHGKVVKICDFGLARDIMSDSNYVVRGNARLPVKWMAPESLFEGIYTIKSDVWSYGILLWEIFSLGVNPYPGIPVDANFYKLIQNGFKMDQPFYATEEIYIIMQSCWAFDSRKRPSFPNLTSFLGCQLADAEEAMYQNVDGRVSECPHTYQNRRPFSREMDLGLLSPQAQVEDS
The settings on record: read-out: %Inh FLT3.

Another assay has as its target LRRK2 (Homo sapiens, UniProt Q5S007). Particulars: read-out: %Inh LRRK2.
The next assay has as its target CDKL1 (Homo sapiens, UniProt Q00532). Particulars: read-out: %Inh CDKL1.
In a further assay the target is BRK (Homo sapiens, UniProt Q13882). Particulars: read-out: %Inh BRK.
Another assay addresses T2, DDR2 (Homo sapiens, UniProt Q16832).
T2 sequence (Q16832 22-855): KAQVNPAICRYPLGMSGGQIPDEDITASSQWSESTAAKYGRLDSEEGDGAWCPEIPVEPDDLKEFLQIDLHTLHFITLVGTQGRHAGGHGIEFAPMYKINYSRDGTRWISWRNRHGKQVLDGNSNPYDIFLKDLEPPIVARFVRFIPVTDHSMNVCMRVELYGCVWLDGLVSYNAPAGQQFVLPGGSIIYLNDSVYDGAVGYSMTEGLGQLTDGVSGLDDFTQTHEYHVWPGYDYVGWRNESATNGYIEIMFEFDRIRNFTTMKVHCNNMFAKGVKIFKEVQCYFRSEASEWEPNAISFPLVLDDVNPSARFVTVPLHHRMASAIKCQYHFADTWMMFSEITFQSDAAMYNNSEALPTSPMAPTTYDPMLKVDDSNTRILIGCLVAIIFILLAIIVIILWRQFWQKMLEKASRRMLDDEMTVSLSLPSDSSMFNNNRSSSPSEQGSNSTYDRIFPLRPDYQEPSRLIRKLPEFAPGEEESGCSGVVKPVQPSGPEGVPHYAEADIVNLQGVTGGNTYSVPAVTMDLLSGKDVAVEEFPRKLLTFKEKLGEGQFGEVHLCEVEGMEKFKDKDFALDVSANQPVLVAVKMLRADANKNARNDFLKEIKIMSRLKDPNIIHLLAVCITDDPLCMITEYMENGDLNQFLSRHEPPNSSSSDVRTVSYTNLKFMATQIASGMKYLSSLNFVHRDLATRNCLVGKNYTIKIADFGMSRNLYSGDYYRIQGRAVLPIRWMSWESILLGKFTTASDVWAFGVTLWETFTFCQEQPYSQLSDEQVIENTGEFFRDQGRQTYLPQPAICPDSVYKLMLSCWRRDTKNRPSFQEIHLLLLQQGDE
The settings on record: read-out: %Inh DDR2.

The next assay deals with T3, CSNK1A1L (Homo sapiens, UniProt Q8N752).
T3 sequence (Q8N752 1-337): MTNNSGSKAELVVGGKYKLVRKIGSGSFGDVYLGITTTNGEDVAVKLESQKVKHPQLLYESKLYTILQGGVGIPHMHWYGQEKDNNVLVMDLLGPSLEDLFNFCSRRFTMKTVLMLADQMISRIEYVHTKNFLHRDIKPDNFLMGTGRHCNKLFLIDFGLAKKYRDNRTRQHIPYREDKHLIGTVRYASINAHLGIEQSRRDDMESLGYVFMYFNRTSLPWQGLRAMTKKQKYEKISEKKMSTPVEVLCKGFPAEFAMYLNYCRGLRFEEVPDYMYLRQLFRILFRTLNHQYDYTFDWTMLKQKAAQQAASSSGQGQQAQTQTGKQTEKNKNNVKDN
Particulars: read-out: %Inh CSNK1A1L.

For a further assay, the target named is CDK4-cyclinD1 (Homo sapiens, UniProt P11802). The settings on record: read-out: %Inh CDK4-cyclinD1.
The target in assay [1] is JAK2(JH1domain-catalytic) (Homo sapiens, UniProt O60674). Particulars: read-out: %Inh JAK2(JH1domain-catalytic).
JAK2(JH1domain-catalytic), sequence (O60674 840-1132 limits assumed): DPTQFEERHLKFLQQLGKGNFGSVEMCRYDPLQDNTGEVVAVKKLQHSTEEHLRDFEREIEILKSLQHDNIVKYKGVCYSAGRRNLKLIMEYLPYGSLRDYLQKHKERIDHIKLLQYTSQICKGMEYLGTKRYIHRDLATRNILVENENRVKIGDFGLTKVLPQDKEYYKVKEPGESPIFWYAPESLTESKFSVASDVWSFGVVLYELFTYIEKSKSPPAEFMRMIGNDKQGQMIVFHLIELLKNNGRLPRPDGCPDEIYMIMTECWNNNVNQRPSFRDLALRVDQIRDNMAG

CDK4-cyclinD1, sequence (P11802 whole entry): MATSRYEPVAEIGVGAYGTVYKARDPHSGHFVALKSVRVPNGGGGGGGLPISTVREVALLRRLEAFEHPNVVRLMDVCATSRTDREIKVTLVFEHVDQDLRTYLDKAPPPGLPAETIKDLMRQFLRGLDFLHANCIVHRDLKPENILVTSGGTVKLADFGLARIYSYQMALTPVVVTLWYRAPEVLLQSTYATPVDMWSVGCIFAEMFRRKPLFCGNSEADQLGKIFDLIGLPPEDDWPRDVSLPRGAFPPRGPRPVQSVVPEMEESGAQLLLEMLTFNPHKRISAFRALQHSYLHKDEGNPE
CDK4-cyclinD1, sequence (P24385 whole entry partner): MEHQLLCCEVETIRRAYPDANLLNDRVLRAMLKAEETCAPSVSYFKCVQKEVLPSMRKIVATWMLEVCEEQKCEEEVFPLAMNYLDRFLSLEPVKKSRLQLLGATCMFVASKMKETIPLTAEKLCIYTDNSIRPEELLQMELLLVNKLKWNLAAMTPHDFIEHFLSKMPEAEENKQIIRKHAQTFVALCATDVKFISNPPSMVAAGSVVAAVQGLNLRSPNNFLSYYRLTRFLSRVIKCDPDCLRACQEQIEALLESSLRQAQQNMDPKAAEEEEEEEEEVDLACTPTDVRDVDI
CDKL1, sequence (Q00532 whole entry): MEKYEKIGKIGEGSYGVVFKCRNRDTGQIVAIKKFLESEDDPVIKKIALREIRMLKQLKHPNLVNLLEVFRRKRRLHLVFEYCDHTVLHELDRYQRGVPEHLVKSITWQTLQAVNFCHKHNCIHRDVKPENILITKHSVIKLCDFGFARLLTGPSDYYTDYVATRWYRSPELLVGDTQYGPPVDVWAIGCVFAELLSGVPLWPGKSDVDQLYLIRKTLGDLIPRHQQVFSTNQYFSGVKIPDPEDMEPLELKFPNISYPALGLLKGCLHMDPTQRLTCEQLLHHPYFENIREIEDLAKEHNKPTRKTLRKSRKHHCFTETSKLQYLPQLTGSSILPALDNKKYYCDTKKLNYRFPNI
FAK, sequence (Q05397 whole entry): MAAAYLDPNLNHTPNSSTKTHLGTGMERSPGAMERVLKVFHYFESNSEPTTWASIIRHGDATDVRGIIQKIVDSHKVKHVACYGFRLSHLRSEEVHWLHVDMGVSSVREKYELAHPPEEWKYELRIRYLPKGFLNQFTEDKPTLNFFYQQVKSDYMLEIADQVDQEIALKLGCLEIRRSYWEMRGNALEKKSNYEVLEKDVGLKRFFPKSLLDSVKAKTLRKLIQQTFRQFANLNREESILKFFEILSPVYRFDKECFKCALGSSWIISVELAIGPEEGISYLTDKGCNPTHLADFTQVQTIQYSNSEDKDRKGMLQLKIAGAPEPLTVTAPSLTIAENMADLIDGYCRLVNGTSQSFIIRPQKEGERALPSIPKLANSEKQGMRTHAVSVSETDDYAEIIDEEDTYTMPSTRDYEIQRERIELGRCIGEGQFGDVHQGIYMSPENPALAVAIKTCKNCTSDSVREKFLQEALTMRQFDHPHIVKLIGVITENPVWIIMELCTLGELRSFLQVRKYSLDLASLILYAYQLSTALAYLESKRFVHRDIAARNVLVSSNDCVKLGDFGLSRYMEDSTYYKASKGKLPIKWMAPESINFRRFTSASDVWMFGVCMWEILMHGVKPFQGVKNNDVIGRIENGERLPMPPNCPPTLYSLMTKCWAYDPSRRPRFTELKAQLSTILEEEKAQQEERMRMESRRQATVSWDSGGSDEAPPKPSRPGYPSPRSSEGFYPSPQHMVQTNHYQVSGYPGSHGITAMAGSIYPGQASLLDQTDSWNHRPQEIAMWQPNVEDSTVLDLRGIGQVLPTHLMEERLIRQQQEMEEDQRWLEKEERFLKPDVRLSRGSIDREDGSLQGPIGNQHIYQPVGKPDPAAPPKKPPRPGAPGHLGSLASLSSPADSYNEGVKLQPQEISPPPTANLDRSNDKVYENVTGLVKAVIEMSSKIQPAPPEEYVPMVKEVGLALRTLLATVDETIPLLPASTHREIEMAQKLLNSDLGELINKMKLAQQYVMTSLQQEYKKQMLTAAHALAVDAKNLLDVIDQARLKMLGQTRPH
LRRK2, sequence (Q5S007 whole entry): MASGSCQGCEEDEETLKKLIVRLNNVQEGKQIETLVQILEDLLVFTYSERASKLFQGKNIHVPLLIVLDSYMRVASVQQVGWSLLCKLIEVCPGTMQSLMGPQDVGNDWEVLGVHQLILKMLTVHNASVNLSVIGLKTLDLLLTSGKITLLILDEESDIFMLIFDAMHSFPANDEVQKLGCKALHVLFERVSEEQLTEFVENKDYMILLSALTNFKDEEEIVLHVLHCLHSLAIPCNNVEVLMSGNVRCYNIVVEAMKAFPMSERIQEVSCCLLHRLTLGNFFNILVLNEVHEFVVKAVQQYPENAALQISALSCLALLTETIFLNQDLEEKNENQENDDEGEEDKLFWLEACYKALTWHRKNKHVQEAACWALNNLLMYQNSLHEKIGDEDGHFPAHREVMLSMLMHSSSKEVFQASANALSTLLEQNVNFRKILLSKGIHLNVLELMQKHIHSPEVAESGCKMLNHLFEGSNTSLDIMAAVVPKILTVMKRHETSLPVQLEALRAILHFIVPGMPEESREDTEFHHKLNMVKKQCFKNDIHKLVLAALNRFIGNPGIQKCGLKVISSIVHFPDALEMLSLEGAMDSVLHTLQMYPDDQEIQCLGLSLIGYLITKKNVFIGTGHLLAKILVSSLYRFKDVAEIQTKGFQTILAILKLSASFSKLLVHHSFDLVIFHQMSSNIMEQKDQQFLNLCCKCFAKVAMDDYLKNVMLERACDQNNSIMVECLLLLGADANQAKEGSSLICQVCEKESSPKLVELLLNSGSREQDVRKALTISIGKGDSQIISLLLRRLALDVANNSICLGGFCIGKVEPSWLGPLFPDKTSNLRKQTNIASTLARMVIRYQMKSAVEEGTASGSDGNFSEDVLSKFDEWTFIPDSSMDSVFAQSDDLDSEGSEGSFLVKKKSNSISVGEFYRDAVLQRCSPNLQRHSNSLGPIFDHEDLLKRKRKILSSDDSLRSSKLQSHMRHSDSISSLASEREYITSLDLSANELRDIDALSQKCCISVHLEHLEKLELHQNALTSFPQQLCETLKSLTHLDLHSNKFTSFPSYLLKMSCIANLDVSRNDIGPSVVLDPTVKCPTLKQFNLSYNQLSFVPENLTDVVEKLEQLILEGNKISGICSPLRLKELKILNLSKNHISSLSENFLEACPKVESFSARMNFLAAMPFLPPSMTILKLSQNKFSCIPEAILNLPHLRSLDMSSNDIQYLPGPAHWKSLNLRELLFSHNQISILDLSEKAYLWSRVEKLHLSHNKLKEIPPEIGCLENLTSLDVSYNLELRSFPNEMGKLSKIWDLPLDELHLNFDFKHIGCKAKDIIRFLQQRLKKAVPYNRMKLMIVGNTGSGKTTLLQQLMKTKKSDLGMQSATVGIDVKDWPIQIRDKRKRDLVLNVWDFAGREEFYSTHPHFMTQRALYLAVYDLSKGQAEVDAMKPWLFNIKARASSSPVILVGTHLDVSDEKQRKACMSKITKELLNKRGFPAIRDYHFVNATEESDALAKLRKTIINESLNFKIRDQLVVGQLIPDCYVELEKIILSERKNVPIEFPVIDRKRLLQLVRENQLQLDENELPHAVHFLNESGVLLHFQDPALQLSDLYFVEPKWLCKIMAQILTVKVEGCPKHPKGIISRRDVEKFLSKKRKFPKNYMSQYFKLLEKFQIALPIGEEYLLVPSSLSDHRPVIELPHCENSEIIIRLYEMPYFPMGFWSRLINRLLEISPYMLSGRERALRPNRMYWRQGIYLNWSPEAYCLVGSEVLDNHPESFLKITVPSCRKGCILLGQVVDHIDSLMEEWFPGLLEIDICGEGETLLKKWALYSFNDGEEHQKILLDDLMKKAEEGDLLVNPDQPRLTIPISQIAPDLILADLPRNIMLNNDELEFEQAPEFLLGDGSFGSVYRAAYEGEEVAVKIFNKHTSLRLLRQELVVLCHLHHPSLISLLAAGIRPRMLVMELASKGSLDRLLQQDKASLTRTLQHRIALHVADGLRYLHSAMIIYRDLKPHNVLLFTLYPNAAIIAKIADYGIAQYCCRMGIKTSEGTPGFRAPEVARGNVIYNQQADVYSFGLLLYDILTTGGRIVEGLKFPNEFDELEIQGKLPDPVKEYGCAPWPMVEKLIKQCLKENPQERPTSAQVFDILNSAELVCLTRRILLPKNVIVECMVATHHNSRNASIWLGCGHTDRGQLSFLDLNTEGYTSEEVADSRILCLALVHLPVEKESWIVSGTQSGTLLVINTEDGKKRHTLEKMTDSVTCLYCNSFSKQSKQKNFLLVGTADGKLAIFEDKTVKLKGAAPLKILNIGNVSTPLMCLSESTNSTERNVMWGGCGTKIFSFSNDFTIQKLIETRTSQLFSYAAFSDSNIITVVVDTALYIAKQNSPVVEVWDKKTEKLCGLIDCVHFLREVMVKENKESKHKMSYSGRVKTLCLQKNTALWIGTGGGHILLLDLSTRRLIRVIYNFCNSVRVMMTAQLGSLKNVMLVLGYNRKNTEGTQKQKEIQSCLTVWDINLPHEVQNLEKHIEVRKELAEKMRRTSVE

Take `O=c1cc(N2CCOCC2)nc2n(Cc3cccc(Cl)c3Cl)c(C3CC3)nn12` [UNC10225469A]: the inhibition at 1 µM was 0% at FAK; 10% on FLT3; 0% at LRRK2; 20% at CDKL1; 0% on BRK; 0% at DDR2. The inhibition at 1 µM turned out to be 0% at CSNK1A1L, 0% at CDK4-cyclinD1 and 6% in [1].
Regarding `COc1cccc(OC)c1C(=O)Nc1cccc(-c2nn3ccccc3c2-c2ccnc(Nc3cccc(F)c3)n2)c1` [UNC10225310A], the inhibition at 1 µM amounted to 1% at FAK; 49% on FLT3; 0% at LRRK2; 15% on CDKL1; 19% on BRK; 57% at DDR2. Further, the inhibition at 1 µM at CSNK1A1L worked out at 0%; at CDK4-cyclinD1, 0%; in assay [1], 3%.
Consider `CS(=O)(=O)Cc1ccc(Nc2nccc(-c3c(-c4cccc(NC(=O)C5CCCCC5)c4)nn4ncccc34)n2)cc1` [UNC10225159A], for which the inhibition at 1 µM at FAK turned out to be 0%; on FLT3, 88%; at LRRK2, 20%; on CDKL1, 0%; on BRK, 2%; on DDR2, 54%. In addition, the inhibition at 1 µM at CSNK1A1L was 0%; on CDK4-cyclinD1, 15%; in assay [1], 16%.
Consider `Cc1ccc(NC(=O)Nc2cccc(C(F)(F)F)c2)cc1` [UNC10225187A], for which the inhibition at 1 µM turned out to be 1% at FAK; 59% on FLT3; 0% on LRRK2; 14% on CDKL1; 0% at BRK; 65% on DDR2. Besides, the inhibition at 1 µM (on CSNK1A1L; at CDK4-cyclinD1; in assay [1]) was 0% each time.
`Cn1cc(-c2cnc(N)c3c(-c4ccc5c(c4)CCN5C(=O)Cc4ccccc4)csc23)cn1` [UNC10225012A]: the inhibition at 1 µM at FAK was found to be 7%; on FLT3 it was 99%; at LRRK2, 3%; at CDKL1, 9%; on BRK it was 92.2%; at DDR2, 24%. Moreover, the inhibition at 1 µM at CSNK1A1L is 0%; at CDK4-cyclinD1, 0%; in [1], 26%.

These data come from publication PMC5540273, “Progress towards a public chemogenomic set for protein kinases and a call for contributions” (PLoS ONE, 2017).
